Measurements from publication PMC3859622, “Functional Characterization of ECP-Heparin Interaction: A Novel Molecular Model” (PLoS ONE, 2013).
Where a chain is given by its changes, count along the chain named. In names and notes the source's numbering stands. Several values for one entry are separate records, joined by “and”; a condition that tells them apart may be missing. Equal values may be shown once. Read-outs that look alike come from different tables or passages of the source.

Tests used:
wtECP = target: T1, wtECP (Homo sapiens, UniProt P12724); assay: ITC of heparins with wtECP; format: binding; conditions: ITC 25 °C, PBS pH 7.4
T1 construct: His6 (C); made in house; host or cells: Escherichia coli BL21 (DE3) CodonPlus
T1 sequence (P12724 28-160): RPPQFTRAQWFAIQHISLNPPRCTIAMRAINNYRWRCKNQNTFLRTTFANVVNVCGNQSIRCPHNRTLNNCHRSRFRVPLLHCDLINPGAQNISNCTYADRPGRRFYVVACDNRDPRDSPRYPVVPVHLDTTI
Method: (§1) Thermodynamic analysis of wtECP and mutant ECPs to bind heparin was performed using a MicroCal iTC200 calorimeter (MicroCal, Northampton, USA) [38]. ECP was dialyzed against PBS before use and the same buffer was used to prepare heparin solutions. All experiments were performed at 25 °C, using ECP (20 μM, as protein) and heparin (200 μM). The protein solution was placed in a calorimeter cell and the heparin solution was loaded into the syringe injector. In individual titration, auto-controlled microsyringe injected 2 μL heparin solution into the protein solution with an interval of 120 sec. The integrated heat change was analyzed by means of non-linear regression using the MicroCal Origin software, and enthalpy change (ΔH), dissociation constant (K D), and stoichiometry value (N = X/M) were obtained from a single sigmoidal titration curve [39]. […] The effect of dilution of the heparin solution in the titration cell was removed by subtracting calorimetric data for a blank titration, which consisted of titration of heparin solution into PBS.

ECP Q40A = target: T2, ECP Q40A (Homo sapiens, UniProt P12724, Q67A); assay: ITC of heparins with ECP Q40A; format: binding; conditions: ITC 25 °C, PBS pH 7.4
T2 sequence (P12724 28-160 Q67A): T1 sequence (P12724 28-160) with Q40A
Method: as §1

ECP H64A = target: T3, ECP H64A (Homo sapiens, UniProt P12724, H91A); assay: ITC of heparins with ECP H64A; format: binding; conditions: ITC 25 °C, PBS pH 7.4
T3 sequence (P12724 28-160 H91A): T1 sequence (P12724 28-160) with H64A
Method: as §1

ECP Q40A/H64A = target: T4, ECP Q40A/H64A (Homo sapiens, UniProt P12724, H91A/Q67A); assay: ITC of heparins with ECP Q40A/H64A; format: binding; conditions: ITC 25 °C, PBS pH 7.4
T4 sequence (P12724 28-160 Q67A/H91A): T1 sequence (P12724 28-160) with Q40A, H64A
Method: as §1

ECP R105A = target: T5, ECP R105A (Homo sapiens, UniProt P12724, R132A); assay: ITC of heparins with ECP R105A; format: binding; conditions: ITC 25 °C, PBS pH 7.4
T5 sequence (P12724 28-160 R132A): T1 sequence (P12724 28-160) with R105A
Method: as §1

EDN = conditions: calculated, cited from earlier work
EDN W7A = system: EDN W7A; set-up: method as in earlier work; conditions: calculated, Hep6 docked to EDN W7A; cited from earlier work
EDN W10A = system: EDN W10A; set-up: method as in earlier work; conditions: calculated, Hep6 docked to EDN W10A; cited from earlier work
EDN Q14A = system: EDN Q14A; set-up: method as in earlier work; conditions: calculated, Hep6 docked to EDN Q14A; cited from earlier work
EDN H15A = system: EDN H15A; set-up: method as in earlier work; conditions: calculated, Hep6 docked to EDN H15A; cited from earlier work
EDN Q34A = system: EDN Q34A; set-up: method as in earlier work; conditions: calculated, Hep6 docked to EDN Q34A; cited from earlier work
EDN R36A = system: EDN R36A; set-up: method as in earlier work; conditions: calculated, Hep6 docked to EDN R36A; cited from earlier work
EDN K38A = system: EDN K38A; set-up: method as in earlier work; conditions: calculated, Hep6 docked to EDN K38A; cited from earlier work
EDN N39A = system: EDN N39A; set-up: method as in earlier work; conditions: calculated, Hep6 docked to EDN N39A; cited from earlier work
EDN Q40A = system: EDN Q40A; set-up: method as in earlier work; conditions: calculated, Hep6 docked to EDN Q40A; cited from earlier work
EDN H129A = system: EDN H129A; set-up: method as in earlier work; conditions: calculated, Hep6 docked to EDN H129A; cited from earlier work
EDN L130A = system: EDN L130A; set-up: method as in earlier work; conditions: calculated, Hep6 docked to EDN L130A; cited from earlier work
EDN R132A = system: EDN R132A; set-up: method as in earlier work; conditions: calculated, Hep6 docked to EDN R132A; cited from earlier work
yeast tRNA [1] = assay: Ribonuclease activity, yeast tRNA digestion; format: biochemical; conditions: yeast tRNA cleavage, 37 °C, 15 min, pH 7.4
Method: Ribonuclease activities of recombinant wtECP and mutant ECPs were measured using yeast tRNA (Invitrogen, USA) digestion method, using bovine pancreatic RNaseA (USB, USA) as positive control. Three hundred microliters of 100 mM sodium phosphate buffer, pH 7.4, and 500 μl diethylpyrocarbonate-ddH2O were mixed with 50 μl 0.05 μM RNaseA and 5 μM wtECP or each mutant ECP separately. Ten microliters of 5 mg/ml yeast tRNA was added and incubated at 37 °C for 0, 5, 10 and 15 min. Ice-cold 500 μl stop solution (1:1, v/v, 40 mM lanthanum nitrate and 6% perchloric acid) was added and shaken for 10 min to stop reaction. Intact yeast tRNA was […] by centrifugation at 16,100 × g at 25 °C for 5 min. One hundred microliters of supernatant in each tube was placed on to a 96-well plate. The amount of soluble tRNA in supernatant was determined by A260 nm. The calculation has been described previously.

yeast tRNA [2] = system: yeast tRNA; set-up: method as in PMID 9649619; conditions: cited from earlier work
[3] = set-up: method as in PMID 9357326; conditions: relative to EDN; cited from earlier work

Q: Which “N (sites)” value (wtECP) does the source give for O=C(O)[C@@H]1O[C@@H](O[C@H]2[C@H](O)[C@@H](NS(=O)(=O)O)[C@@H](O[C@H]3[C@H](O)[C@@H](OS(=O)(=O)O)C(O)O[C@H]3C(=O)O)O[C@@H]2COS(=O)(=O)O)[C@H](OS(=O)(=O)O)[C@@H](O)[C@@H]1O[C@H]1O[C@H](COS(=O)(=O)O)[C@@H](O[C@@H]2O[C@@H](C(=O)O)[C@@H](O[C@H]3O[C@H](COS(=O)(=O)O)[C@@H](O)[C@H](O)[C@H]3NS(=O)(=O)O)[C@H](O)[C@H]2OS(=O)(=O)O)[C@H](O)[C@H]1NS(=O)(=O)O (stereo partly drawn) [Hep6, [GlcNS(6S)-IdoA(2S)]3] here?
A: 1.77 ± 0.1 sites

Q: What about the TΔS (wtECP) of the same molecule?
A: 20.1 ± 0.42 kJ/mol

Q: What about the ΔG (wtECP) of the same molecule?
A: -32.6 kJ/mol and -32.6 ± 0.42 kJ/mol

Q: What about the “N (sites)” value (ECP Q40A) of the same molecule?
A: 1.7 ± 0.1 sites

Q: What about the TΔS (ECP Q40A) of the same molecule?
A: 13.4 ± 0.84 kJ/mol

Q: What about the ΔG (ECP Q40A) of the same molecule?
A: -31.8 kJ/mol and -31.8 ± 0.84 kJ/mol

Q: And the ΔH (ECP Q40A)?
A: -18.4 ± 1.3 kJ/mol

Q: What about the “N (sites)” value (ECP H64A) of the same molecule?
A: 2.74 ± 0.3 sites

Q: And the TΔS (ECP H64A)?
A: 8.4 ± 1.3 kJ/mol

Q: And the ΔG (ECP H64A)?
A: -32.2 kJ/mol and -32.2 ± 1.7 kJ/mol

Q: And the ΔH (ECP H64A)?
A: -24.3 ± 1.7 kJ/mol

Q: And the “N (sites)” value (ECP Q40A/H64A)?
A: 2.45 ± 0.1 sites

Q: What about the TΔS (ECP Q40A/H64A) of the same molecule?
A: 15.5 ± 0.42 kJ/mol

Q: And the ΔG (ECP Q40A/H64A)?
A: -31.4 kJ/mol and -31.4 ± 0.42 kJ/mol

Q: What about the ΔH (ECP Q40A/H64A) of the same molecule?
A: -16.3 ± 0.84 kJ/mol

Q: And the “N (sites)” value (ECP R105A)?
A: 2.81 ± 0.1 sites

Q: What about the TΔS (ECP R105A) of the same molecule?
A: 13.8 ± 0.42 kJ/mol

Q: What about the ΔG (ECP R105A) of the same molecule?
A: -33.1 kJ/mol and -33.1 ± 0.84 kJ/mol

Q: What about the ΔH (ECP R105A) of the same molecule?
A: -18.4 ± 0.84 kJ/mol

Q: And the Binding energy (EDN; Hep6 docked to wild type EDN, previous docking simulation data)?
A: -38.8 kJ/mol

Q: What about the Contribution (EDN; contribution of EDN H15 to Hep6 binding energy) of the same molecule?
A: -1.42 kJ/mol

Q: What about the Contribution (EDN; contribution of EDN K38 to Hep6 binding energy) of the same molecule?
A: -2.55 kJ/mol

Q: What about the Contribution (EDN; contribution of EDN L130 to Hep6 binding energy) of the same molecule?
A: -0.33 kJ/mol

Q: And the Contribution (EDN; contribution of EDN N39 to Hep6 binding energy)?
A: -1.21 kJ/mol

Q: What about the Contribution (EDN; contribution of EDN Q14 to Hep6 binding energy) of the same molecule?
A: -1.92 kJ/mol

Q: What about the Contribution (EDN; contribution of EDN Q34 to Hep6 binding energy) of the same molecule?
A: -1.63 kJ/mol

Q: What about the Contribution (EDN; contribution of EDN Q40 to Hep6 binding energy) of the same molecule?
A: -3.22 kJ/mol

Q: And the Contribution (EDN; contribution of EDN R36 to Hep6 binding energy)?
A: -2.34 kJ/mol

Q: And the Contribution (EDN; contribution of EDN R132 to Hep6 binding energy)?
A: -1.92 kJ/mol

Q: And the Contribution (EDN; contribution of EDN W7 to Hep6 binding energy)?
A: -1.42 kJ/mol

Q: What about the Contribution (EDN; contribution of EDN W10 to Hep6 binding energy) of the same molecule?
A: -1.63 kJ/mol

Q: And the Contribution (EDN; contribution of EDN residue printed H120 (row H129A) to Hep6 binding energy)?
A: -0.92 kJ/mol

Q: And the Binding energy (EDN W7A)?
A: -37.4 kJ/mol

Q: What about the Binding energy (EDN W10A) of the same molecule?
A: -37.2 kJ/mol

Q: And the Binding energy (EDN Q14A)?
A: -36.9 kJ/mol

Q: What about the Binding energy (EDN H15A) of the same molecule?
A: -37.4 kJ/mol

Q: What about the Binding energy (EDN Q34A) of the same molecule?
A: -37.2 kJ/mol

Q: What about the Binding energy (EDN R36A) of the same molecule?
A: -36.4 kJ/mol

Q: And the Binding energy (EDN K38A)?
A: -36.2 kJ/mol

Q: And the Binding energy (EDN N39A)?
A: -37.6 kJ/mol

Q: What about the Binding energy (EDN Q40A) of the same molecule?
A: -35.6 kJ/mol

Q: What about the Binding energy (EDN H129A) of the same molecule?
A: -37.9 kJ/mol

Q: What about the Binding energy (EDN L130A) of the same molecule?
A: -38.5 kJ/mol

Q: What about the Binding energy (EDN R132A) of the same molecule?
A: -36.9 kJ/mol

B1: Bovine RNase A: bovine pancreatic RNaseA (USB), positive control (protein, UniProt P61823 27-150, looked up)
Ribonuclease pancreatic: KETAAAKFERQHMDSSTSAASSSNYCNQMMKSRNLTKDRCKPVNTFVHESLADVQAVCSQKNVACKNGQTNCYQSYSTMSITDCRETGSSKYPNCAYKTTQANKHIIVACEGNPYVPVHFDASV
Q: Which results are given for B1?
A: RNase activity (yeast tRNA [1]): 1.1710 ± 0.0131 soluble tRNA/pmol; RNase activity (yeast tRNA [1]; listed as bovine RNaseA): 1.171 soluble tRNA/pmol; RNase activity, reported number (yeast tRNA [2]): 1.208 soluble tRNA/pmol

B2: wtECP: recombinant wild type human eosinophil cationic protein with C-terminal His6 tag, refolded from E. coli (protein, UniProt P12724 28-160, looked up)
Eosinophil cationic protein: T1 sequence (P12724 28-160)
modifications: C-terminal His6 tag
Q: For B2, which RNase activity (yeast tRNA [1]) is on record?
A: 0.0049 soluble tRNA/pmol and 0.0049 ± 0.0001 soluble tRNA/pmol

Q: And the “Ribonucleolytic activity of EDN” value [3]?
A: 1%

B3: Q40A: single mutant recombinant ECP, Gln40 to Ala (protein, UniProt P12724 28-160, looked up, variant Q40A)
Eosinophil cationic protein: T1 sequence (P12724 28-160) with Q40A
Q: Which RNase activity (yeast tRNA [1]) does the source give for B3 here?
A: 0.0043 soluble tRNA/pmol and 0.0043 ± 0.0001 soluble tRNA/pmol

B4: H64A: single mutant recombinant ECP, His64 to Ala (protein, UniProt P12724 28-160, looked up, variant H64A)
Eosinophil cationic protein: T1 sequence (P12724 28-160) with H64A
Q: With B4 as the molecule, how does the RNase activity (yeast tRNA [1]) read?
A: 0.0068 soluble tRNA/pmol and 0.0068 ± 0.0001 soluble tRNA/pmol

B5: R105A: single mutant recombinant ECP, Arg105 to Ala (protein, UniProt P12724 28-160, looked up, variant R105A)
Eosinophil cationic protein: T1 sequence (P12724 28-160) with R105A
Q: Which RNase activity (yeast tRNA [1]) does the source give for B5 here?
A: 0.0032 soluble tRNA/pmol and 0.0032 ± 0.0002 soluble tRNA/pmol

B6: Q40A/H64A: double mutant recombinant ECP, Gln40 and His64 to Ala (protein, UniProt P12724 28-160, looked up, variant Q40A H64A)
Eosinophil cationic protein: T1 sequence (P12724 28-160) with Q40A, H64A
Q: Which RNase activity (yeast tRNA [1]) does the source give for B6 here?
A: 0.0056 soluble tRNA/pmol and 0.0056 ± 0.0002 soluble tRNA/pmol
